# Source: patent US6683103B2, “Sulfonamides for treatment of endothelin-mediated disorders” (Texas Biotechnology Corporation, priority 1997, dated 2004)
# Like-named read-outs stand apart in the source and are kept apart here.
# Key:
# human ETA receptors = molecular target: T1, human ETA receptors (Homo sapiens, UniProt P25101); assay: Binding Test #1: inhibition of 125I-ET-1 binding to ETA receptors (TE 671 cell membranes); conditions: read-out: ETA
# T1 construct: endogenous in cells; host or cells: TE 671 cells (ATCC HTB 139)
# T1 sequence (P25101 21-427): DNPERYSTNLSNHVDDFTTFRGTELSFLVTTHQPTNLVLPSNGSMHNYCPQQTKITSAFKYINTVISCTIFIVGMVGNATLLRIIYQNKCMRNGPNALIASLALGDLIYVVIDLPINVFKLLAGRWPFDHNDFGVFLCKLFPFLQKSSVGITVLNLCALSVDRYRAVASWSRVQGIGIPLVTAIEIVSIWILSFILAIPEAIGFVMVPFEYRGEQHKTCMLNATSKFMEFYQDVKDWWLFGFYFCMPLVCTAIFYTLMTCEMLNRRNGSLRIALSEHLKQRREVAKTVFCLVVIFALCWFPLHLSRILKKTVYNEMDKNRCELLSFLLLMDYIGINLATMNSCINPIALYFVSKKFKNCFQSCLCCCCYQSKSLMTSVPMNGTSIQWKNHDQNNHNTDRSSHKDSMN
# Summary of the method: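 Membranes from TE 671 cells (up to 8 μg protein) incubated with ¹²⁵I-ET-1 and compound (1 nM–100 μM final) in 30 mM HEPES pH 7.4, 150 mM NaCl, 5 mM MgCl2, 0.5% bacitracin, 16–18 h at 4 °C or alternatively at 24 °C. Nonspecific binding with 80 nM ET-1; bound pellet gamma-counted, % inhibition calculated, usually triplicate.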
# human ETB receptor = molecular target: T2, human ETB receptor (Homo sapiens, UniProt P24530); assay: Binding Test #2: inhibition of 125I-ET-1 binding to ETB receptors (transfected COS7 cell membranes); conditions: read-out: ETB
# T2 construct: expressed in transfected cells; host or cells: COS7 cells
# T2 sequence (P24530 27-442): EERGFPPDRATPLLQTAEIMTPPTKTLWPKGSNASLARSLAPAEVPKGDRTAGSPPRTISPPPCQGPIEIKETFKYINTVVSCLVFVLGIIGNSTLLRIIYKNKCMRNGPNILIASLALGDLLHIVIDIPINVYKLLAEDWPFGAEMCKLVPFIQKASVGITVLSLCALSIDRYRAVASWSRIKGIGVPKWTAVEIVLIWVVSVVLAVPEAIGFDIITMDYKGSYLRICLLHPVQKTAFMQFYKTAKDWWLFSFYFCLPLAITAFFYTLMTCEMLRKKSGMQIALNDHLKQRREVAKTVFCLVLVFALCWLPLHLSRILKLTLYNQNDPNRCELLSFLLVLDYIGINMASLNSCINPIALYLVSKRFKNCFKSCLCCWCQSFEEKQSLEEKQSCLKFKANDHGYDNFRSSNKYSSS
# Summary of the method: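 Competition with 125I-ET-1 for binding to membranes from COS7 cells transfected with human ETB receptor, used at 1 μg/50 μl binding buffer. Membranes prepared in HEPES pH 7.4 with aprotinin, including a DNase/MnCl2 step at 37 °C for 30 min.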
# [1] = Table 1, † incubation at 24° C.
# [2] = Table 2, † incubation at 24° C.
SMILES,"IC50 (human ETA receptors; Table 1, incubation at 4° C.)","IC50 (human ETB receptor; Table 1, incubation at 4° C.)",IC50 (human ETA receptors; [1]),IC50 (human ETB receptor; [1]),further results
Cc1noc(NS(=O)(=O)c2cc(-c3ccccc3)cs2)c1Br [N-(4-bromo-3-methyl-5-isoxazolyl)-4-phenylthiophene-2-sulfonamide],0.224 µM,1.17 µM,,,
Cc1noc(NS(=O)(=O)c2ccc(-c3cccc4ccccc34)s2)c1Br [N-(4-bromo-3-methyl-5-isoxazolyl)-5-(1-naphthyl)thiophene-2-sulfonamide],,,14 µM,1.4 µM,
CCCC#Cc1ccc(S(=O)(=O)Nc2onc(C)c2Br)s1 [N-(4-bromo-3-methyl-5-isoxazolyl)-5-(1-pentynyl)thiophene-2-sulfonamide],,,29 µM,5.6 µM,
COc1ccccc1-c1ccc(S(=O)(=O)Nc2onc(C)c2Br)s1 [N-(4-bromo-3-methyl-5-isoxazolyl)-5-(2-methoxyphenyl)thiophene-2-sulfonamide],0.381 µM,1.1 µM,,,
Cc1ccc(-c2ccc(S(=O)(=O)Nc3onc(C)c3Br)s2)o1 [N-(4-bromo-3-methyl-5-isoxazolyl)-5-(2-methyfuranyl)thiophene-2-sulfonamide],,,32 µM,7.5 µM,
Cc1ccccc1-c1ccc(S(=O)(=O)Nc2onc(C)c2Br)s1 [N-(4-bromo-3-methyl-5-isoxazolyl)-5-(2-tolyl)thiophene-2-sulfonamide],0.432 µM,0.313 µM,,,
Cc1noc(NS(=O)(=O)c2ccc(-c3cccs3)s2)c1Br [N-(4-bromo-3-methyl-5-isoxazolyl)-5-(2′-thienyl)thiophene-2-sulfonamide],5.1 µM,0.363 µM,,,
"Cc1noc(NS(=O)(=O)c2ccc(C#CC(C)(C)C)s2)c1Br [N-(4-bromo-3-methyl-5-isoxazolyl)-5-(3,3-dimethylbutyn-1-yl)thiophene-2-sulfonamide]",1.12 µM,24 µM,7.24 µM,35.5 µM,
Cc1noc(NS(=O)(=O)c2ccc(-c3cccc(N)c3)s2)c1Br [N-(4-bromo-3-methyl-5-isoxazolyl)-5-(3-aminophenyl)thiophene-2-sulfonamide],0.537 µM,1.07 µM,1.44 µM,2.63 µM,
COc1cccc(-c2ccc(S(=O)(=O)Nc3onc(C)c3Br)s2)c1 [N-(4-bromo-3-methyl-5-isoxazolyl)-5-(3-methoxyphenyl)thiophene-2-sulfonamide],3.26 µM,0.776 µM,23.4 µM,4.7 µM,
Cc1noc(NS(=O)(=O)c2ccc(-c3cccc([N+](=O)[O-])c3)s2)c1Br [N-(4-bromo-3-methyl-5-isoxazolyl)-5-(3-nitrophenyl)thiophene-2-sulfonamide],,,26 µM,4.5 µM,
Cc1noc(NS(=O)(=O)c2ccc(-c3ccsc3)s2)c1Br [N-(4-bromo-3-methyl-5-isoxazolyl)-5-(3-thienyl)thiophene-2-sulfonamide],4.49 µM,0.38 µM,,,
Cc1cccc(-c2ccc(S(=O)(=O)Nc3onc(C)c3Br)s2)c1 [N-(4-bromo-3-methyl-5-isoxazolyl)-5-(3-tolyl)thiophene-2-sulfonamide],,,15 µM,4.2 µM,
Cc1noc(NS(=O)(=O)c2ccc(-c3ccc(C(=O)O)cc3)s2)c1Br [N-(4-bromo-3-methyl-5-isoxazolyl)-5-(4-carboxyphenyl)thiophene-2-sulfonamide],,,> 100 µM,31 µM,
CCc1ccc(-c2ccc(S(=O)(=O)Nc3onc(C)c3Br)s2)cc1 [N-(4-bromo-3-methyl-5-isoxazolyl)-5-(4-ethylphenyl)thiophene-2-sulfonamide],3.23 µM,0.0855 µM,,,
COc1ccc(-c2ccc(S(=O)(=O)Nc3onc(C)c3Br)s2)cc1 [N-(4-bromo-3-methyl-5-isoxazolyl)-5-(4-methoxyphenyl)thiophene-2-sulfonamide],8.69 µM,0.363 µM,26.3 µM,2.4 µM,
COC(=O)c1ccc(-c2ccc(S(=O)(=O)Nc3onc(C)c3Br)s2)cc1 [N-(4-bromo-3-methyl-5-isoxazolyl)-5-(4-methyoxycarbonylphenyl)thiophene-2-sulfonamide],,,> 100 µM,17 µM,

SMILES,"IC50 (human ETA receptors; Table 1, incubation at 4° C.)","IC50 (human ETB receptor; Table 1, incubation at 4° C.)",IC50 (human ETA receptors; [1]),IC50 (human ETB receptor; [1]),further results
Cc1ccc(NC(=O)c2ccc(S(=O)(=O)Nc3onc(C)c3Br)s2)cc1 [N-(4-bromo-3-methyl-5-isoxazolyl)-5-(4-tolyl)aminocarbonyl)thiophene-2-sulfonamide],,,28 µM,8.6 µM,
Cc1noc(NS(=O)(=O)c2ccc(-c3ccc(C(C)C)cc3)s2)c1Br [N-(4-bromo-3-methyl-5-isoxazolyl)-5-(4′-isopropylphenyl))thiophene-2-sulfonamide],1.6 µM,0.3 µM,,,
CCCc1ccc(-c2ccc(S(=O)(=O)Nc3onc(C)c3Br)s2)cc1 [N-(4-bromo-3-methyl-5-isoxazolyl)-5-(4′-propylphenyl))thiophene-2-sulfonamide],5.6 µM,0.51 µM,,,
CCc1ccc(-c2ccc(S(=O)(=O)Nc3onc(C)c3Br)s2)s1 [N-(4-bromo-3-methyl-5-isoxazolyl)-5-(5-ethylthien-2-yl)thiophene-2-sulfonamide],,,24 µM,7.7 µM,
Cc1noc(NS(=O)(=O)c2ccc(Sc3ccccc3)o2)c1Br [N-(4-bromo-3-methyl-5-isoxazolyl)-5-(phenthio)furan-2-sulfonamide],5 µM,7 µM,,,
"Cc1noc(NS(=O)(=O)c2ccc(-c3cc(C(F)(F)F)cc(C(F)(F)F)c3)s2)c1Br [N-(4-bromo-3-methyl-5-isoxazolyl)-5-[3,5-bis(triflouromethyl)phenyl]thiophene-2-sulfonamide]",0.794 µM,12 µM,5.9 µM,15.5 µM,
Cc1noc(NS(=O)(=O)c2ccc(-c3ccc(C(F)(F)F)cc3)s2)c1Br [N-(4-bromo-3-methyl-5-isoxazolyl)-5-[4-(trifluoromethyl)phenyl]thiophene-2-sulfonamide],6.39 µM,0.0835 µM,6.31 µM,0.282 µM,
Cc1noc(NS(=O)(=O)c2ccc(Br)s2)c1Br [N-(4-bromo-3-methyl-5-isoxazolyl)-5-bromothiophene-2-sulfonamide],0.314 µM,2.26 µM,,,
Cc1noc(NS(=O)(=O)c2ccc(-c3ccccc3)o2)c1Br [N-(4-bromo-3-methyl-5-isoxazolyl)-5-phenylfuran-2-sulfonamide],0.857 µM,2.43 µM,,,
Cc1noc(NS(=O)(=O)c2ccc(-c3ccccc3)s2)c1Br [N-(4-bromo-3-methyl-5-isoxazolyl)-5-phenylthiophene-2-sulfonamide],3.53 µM,0.417 µM,36.6 µM,2.4 µM,
Cc1noc(NS(=O)(=O)c2ccco2)c1Br [N-(4-bromo-3-methyl-5-isoxazolyl)furan-2-sulfonamide],0.75 µM,88.1 µM,,,
Cc1noc(NS(=O)(=O)c2ccsc2)c1Br [N-(4-bromo-3-methyl-5-isoxazolyl)thiophene-3-sulfonamide],0.135 µM,23.4 µM,,,
Cc1onc(NS(=O)(=O)c2ccc(-c3ccccc3)cc2)c1Br [N-(4-bromo-5-methyl-3-isoxazolyl)-4-biphenylsulfonamide],,,,,"IC50 (human ETA receptors; Table 2, incubation at 4° C.): 6.4 ± 2 µM; IC50 (human ETA receptors; [2]): 49 µM; IC50 (human ETB receptor; Table 2, incubation at 4° C.): 0.29 ± 0.02 µM; IC50 (human ETB receptor; [2]): 1.78 µM"
Cc1onc(NS(=O)(=O)c2cccs2)c1Br [N-(4-bromo-5-methyl-3-isoxazolyl)thiophene-2-sulfonamide],0.211 µM,27.3 µM,,,
"Cc1cc(C)c(NC(=O)c2sccc2S(=O)(=O)Nc2onc(C)c2Cl)c(C)c1 [N-(4-chloro-3-methyl-5-isoxazolyl)-2-(2,4,6-trimethylphenylaminocarbonyl)thiophene-3-sulfonamide]",,,0.000626 µM,8.27 µM,
"Cc1ccc(CC(=O)c2sccc2S(=O)(=O)Nc2onc(C)c2Cl)c(C)c1 [N-(4-chloro-3-methyl-5-isoxazolyl)-2-(2,4-dimethylphenylacetyl)thiophene-3-sulfonamide]",,,0.0004 µM,4.8 µM,
